Assay results from US20080206215A1, “APPARATUS AND METHOD FOR TREATMENT OF MICROORGANISMS DURING PROPAGATION, CONDITIONING AND FERMENTATION” (priority 2006, published 2008).

Key:
fermentation = conditions: background statement; cited from earlier work
Weisella confusa = conditions: background statement; cited from earlier work
bacteria = assay: amount of bacteria (CFU/g) in fermenting mash treated with antimicrobial agents; format: cell-based; conditions: FIG. 5
Source text: FIG. 5 is a bar graph showing the amount of bacteria present (in CFU/g) in fermenting mash treated with different antimicrobial agents (in ppm) at different times (in hours).
FIG. 5 is a bar graph showing the amount of bacteria present (in CFU/g) in fermenting mash treated with different levels of an antimicrobial agent (in ppm), either ClO2 or antibiotic, at different times (in hours).

yeast [1] = assay: ethanol production from corn mash treated with ClO2 prior to fermentation; format: cell-based; conditions: ClO2 dosages of between about 10 and about 75 mg/L applied to the mash prior to fermentation; FIG. 3
Source text: FIG. 3 is a graph of time (in hours) versus ethanol produced (in grams) for mash treated with various concentrations of ClO2 prior to the fermentation process.
The ClO2 can also be added to the mash prior to the fermentation process, for example before the SSF stage. FIG. 3 is a graph of time (in hours) versus ethanol produced (in grams) for mash treated with various concentrations of ClO2 prior to the fermentation process.

yeast [2] = assay: yeast viability in corn mash treated with ClO2 during propagation/conditioning; format: cell-based; conditions: yeast treated with ClO2 during propagation/conditioning phase; FIG. 4
Source text: FIG. 4 is a bar graph of viability (% of yeast cells living out of the original number) over time (in hours) in the corn mash treated with 0, 10 and 50 ppm of ClO2.
Chlorine dioxide can also be added during propagation and/or conditioning. For example ClO2 can be added to the yeast slurry before SSF replacing the acid washing step. FIG. 4 is a bar graph of viability (% of yeast cells living out of the original number) over time (in hours) in the corn mash treated with 0, 10 and 500 ppm of ClO2. […] The yeast can tolerate a ClO2 environment and remain viable at high concentrations of ClO2. Competing bacteria, wild yeast, molds, etc. will succumb to the ClO2 leaving only highly viable yeast for fermentation without the additional stress of traditional acid washing. Chlorine dioxide dosages of less than about 50 mg/L may be applied directly to the yeast during propagation.

yeast [3] = assay: ethanol production in fermentation batches treated with ClO2 during fermentation; format: cell-based; conditions: ClO2 dosages of less than about 15 mg/L applied directly to the fermentation mixture; FIG. 2
Source text: FIG. 2 is a graph of time (in hours) versus ethanol produced (in grams) for fermentation batches treated with various concentrations of ClO2 during fermentation.
As mentioned above, ClO2 can be added directly into the fermentation mixture. This can be done by adding the ClO2 in conjunction with the yeast and glucoamylase, for example during the SSF stage. FIG. 2 is a graph of time (in hours) versus ethanol produced (in grams) for fermentation batches treated with various concentrations of ClO2 during fermentation.

Compound: Virginiamycin
- concentration that suppresses fermentation (fermentation): over 2 mg/L
- concentration required to inhibit growth (Weisella confusa): over 25 mg/L

Compound: [O][Cl+][O-] [ClO2, Chlorine dioxide]
- microbial reduction versus untreated mash (bacteria; corn mash treated with ClO2, after 72 hours): greater microbial reduction than untreated mash
- microbial reduction versus antibiotic-treated mash (bacteria; corn mash treated with greater than 10 ppm of ClO2, after 72 hours): greater microbial reduction than the corn mash treated with antibiotic
- reaction with glucoamylase (glucoamylase): does not exhibit a significant reaction with glucoamylase
- ethanol production versus control (yeast [1]): greater ethanol production than the control containing no ClO2
- greater yeast viability than untreated yeast (yeast [2]): up to 80%
- ethanol production versus control (yeast [3]): greater ethanol production than the control containing no ClO2

Compound: [O-][Cl+]O [chlorite ion]
- concentration that inhibits the glucoamylase enzyme (glucoamylase; 5% maltose solution, FIG. 6): ≥ 14 mg/L
